Measurements: patent US4714619A, “Aminomalonyl alanine compounds as dietary sweeteners” (priority 1986, dated 1987)
Where a SMILES comes first, the peptide text is derived from it.

Columns and labels:
[1] = Comparative taste test, D- versus L-configuration (Table 2, FIG. 3); set-up: Sweet? (average score) / Bitter? (average score) / Salty? (average score) / Off Taste? (average score) / After Taste? (average score): scale not given here
Protocol: The compounds were dissolved in distilled water at the concentrations specified in Table 2. Solutions were made up and kept overnight in a refrigerator. The following day, they were poured into individual graduated plastic cups (10 ml per cup) and allowed to warm to room temperature. A taste panel was convened and testing begun that same day. Tasting and evaluation was done by the standard protocol developed by Dr. Robert Gesteland of Taste and Smell Consulting Group, Inc.
The first solution tasted (reference standard for the panel) was 0.25M sucrose. Other solutions were tasted in radomized fashion. The random order was arrived at as follows:
i. An ordered list of the compounds and concentrations was prepared (26 solutions in all).
ii. 0.25M sucrose was designated as 1.
iii. A standard table of random numbers was used in which the numbers were grouped as two-digit numbers. A point in the table was chosen at random (blind pointing). The first solution in the list was given the first random number in the sequence (read right-to-left, up-to-down) which is between 2 and 26. The second solution in the list was given the next random number in the sequence between 2 and 26, etc. Repeat numbers were ignored.
iv. Solutions were then labeled A (for number 1) B (for random number 2), C-Z.
v. Panelists were instructed to taste the solutions in alphabetical order.
With the assistance of Taste and Smell Consulting Group, Inc., taste panel members were trained adn tested for their ability to discriminate sucrose solutions of varying concentrations. In summary it may be stated that all 9 panel members had acceptble correlation scores. Their results were in good agreement with those which have been previously reported in siilar types of studies. For the test series the correlations for each panelist for sucrose and aspartame were acceptable as were the overall results obtained by averaging individual scores. The results of the taste panel are set forth in Table 2 wherein the parenthetical figures represent the standard error values for the number above.

[2] = Taste panel (Table 1, FIG. 2); conditions: for After Taste? (average score) / Bitter? (average score) / Off Taste? (average score) / Pleasant? (average score) / Salty? (average score) / Sweet? (average score): normalized to 100
[3] = Stability in aqueous solution (hplc, ambient temperature); type: physicochemical; conditions: 0.05m phosphate buffer, ambient temperature, read-out: degradation
Protocol: Stability was examined in aqueous solution at various pHs. Solutions (1% w/v) were prepared in 0.05M phosphate buffer adjusted to pH 7.4 and pH 3.5. Storage at ambient temperature over 36 days was monitored by hplc analysis (waters radial-pak reverse phase C-8 column, 25% CH3 CN, 0.05% TFA/H2 O eluant, 210 nm U.V. detection). Aspartame was examined similarly for comparison purposes.

## COC(=O)[C@H](Cc1ccccc1)NC(=O)[C@@H](N)CC(=O)O [Aspartame, methyl ester of L-α-Aspartyl-L-phenylalanine] (HELM PEPTIDE1{D.F.[CO[*:1]]}$$$$V2.0)
[1]; 0.3398 Millimolar
  After Taste? (average score): 1
  Bitter? (average score): 1
  Off Taste? (average score): 1
  Pleasant? (average score): 16
  Salty? (average score): 0
  Sweet? (average score): 9
[1]; 1.0194 Millimolar
  After Taste? (average score): 7
  Bitter? (average score): 3
  Off Taste? (average score): 6
  Pleasant? (average score): 8
  Salty? (average score): 10
  Sweet? (average score): 27
[1]; 3.3979 Millimolar
  After Taste? (average score): 16
  Bitter? (average score): 2
  Off Taste? (average score): 12
  Pleasant? (average score): 22
  Salty? (average score): 3
  Sweet? (average score): 66
[1]; 10.1937 Millimolar
  After Taste? (average score): 22
  Bitter? (average score): 5
  Off Taste? (average score): 17
  Pleasant? (average score): 12
  Salty? (average score): 0
  Sweet? (average score): 64
[2]; 0.3392 Millimolar
  After Taste? (average score): 1
  Bitter? (average score): 0
  Off Taste? (average score): 1
  Pleasant? (average score): 4
  Salty? (average score): 1
  Sweet? (average score): 15
[2]; 1.0194 Millimolar
  After Taste? (average score): 2
  Bitter? (average score): 0
  Off Taste? (average score): 4
  Pleasant? (average score): 15
  Salty? (average score): 3
  Sweet? (average score): 27
[2]; 3.3979 Millimolar
  After Taste? (average score): 26
  Bitter? (average score): 4
  Off Taste? (average score): 2
  Pleasant? (average score): 26
  Salty? (average score): 2
  Sweet? (average score): 68
[2]; 10.1937 Millimolar
  After Taste? (average score): 34
  Bitter? (average score): 0
  Off Taste? (average score): 4
  Pleasant? (average score): 9
  Salty? (average score): 1
  Sweet? (average score): 83
[2]; sucrose=1.0, weight scale
  sweetness potency (reciprocal of concentration required for a score of 50): 126
[2]; taste panel
  taste quality: sweet and pleasant
[3]; pH 3.5, 36 days
  degraded at 864 h: > 50%
[3]; pH 7.4 buffer, 9 days
  degraded at 216 h: 100%
